For 72 compounds, IC90 results are on record in PubChem BioAssay AID2842 (Southern Research Institute, 2010).

≈ marks a conversion by molar mass, not a printed value. Bounds are passed on as bounds.

This assay concerns M. tuberculosis H37Rv growth inhibition. Put plainly: Mycobacterium tuberculosis H37Rv growth inhibition, putative kinase inhibitor library, confirmatory dose response (AID 2842).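 Further: bacteria incubated one week before Alamar blue readout.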

Consider `CCC(=O)Nc1nnc(-c2ccc(OC)cc2)o1`, for which the IC90 (in general, the concentration needed for an effect of 90%) was 4.39 µg/mL (≈ 17.8 µM). For the compound `c1ccc(-c2csc(Nc3nc4cc5c(cc4s3)OCO5)n2)nc1`, the IC90 was 1.79 µg/mL (≈ 5.05 µM). The figure for `Fc1ccc2nc(Nc3nc(-c4ccc(Cl)s4)cs3)sc2c1` is 7.87 µg/mL (≈ 21.4 µM); for `O=C(NNc1nc2c(F)cc(F)cc2s1)c1nc2ccccc2s1` it is 21.8 µg/mL (≈ 60.2 µM). The value for `O=C(c1cccs1)N(CCCn1ccnc1)c1nc2ccccc2s1` was 6 µg/mL (≈ 16.3 µM). The value for `Cc1ccc(-c2nnc(NC(=O)c3ccc4c(c3)CCCC4)o2)c(C)c1` was 36.9 µg/mL (≈ 106 µM).

As for `CCc1cccc2sc(N(CCCn3ccnc3)C(=O)c3cc(OC)cc(OC)c3)nc12`, the IC90 is 10.7 µg/mL (≈ 23.7 µM). For the compound `O=C(Nc1nnc(-c2ccccc2Cl)o1)c1cccc(Oc2ccccc2)c1`, the concentration for an effect of 90% (IC90) was 0.86 µg/mL (≈ 2.19 µM). The value for `O=C(Cc1cccc2ccccc12)Nc1nc(-c2ccc(Br)s2)cs1` was 15.7 µg/mL (≈ 36.5 µM).

As for `Cc1ccc(C)c(-c2nnc(NC(=O)c3ccc(OC(C)C)cc3)o2)c1`, the IC90 is 33.4 µg/mL (≈ 95 µM). The value for `COc1cc2c3nnc(-c4ccc(C)cc4)c-3cn(Cc3ccc(Cl)cc3)c2cc1OC` was 4.8 µg/mL (≈ 10.8 µM). The figure for `Cc1ccc2cc(CCNC(=S)NCCn3ccc4ccccc43)c(=O)[nH]c2c1` is 1.26 µg/mL (≈ 3.11 µM); for `CCOc1ccc(-c2[nH]ncc2-c2ccc(Cl)cc2)c(O)c1` it is 7.06 µg/mL (≈ 22.4 µM); for `CC(C)OC(=O)c1ccc(NC(=O)C2COc3ccccc3O2)cc1` (configuration not stated) it is 7.2 µg/mL (≈ 21.1 µM). The figure for `O=C(c1ccco1)N(CCCn1ccnc1)c1nc2c(F)cc(F)cc2s1` is 0.75 µg/mL (≈ 1.93 µM). In the case of `O=C(Nc1cccc(C(F)(F)F)c1)NC1CC(=O)N(c2cccc(F)c2)C1` (configuration not stated), the IC90 is 8.52 µg/mL (≈ 22.3 µM). For `Cc1ccc(C(=O)Nc2cccc(-c3ccc4nnc(C)n4n3)c2)cc1C`, the IC90 is 12.9 µg/mL (≈ 36 µM). The figure for `COc1ccc(-c2nnc(NC(=O)c3cccc(C)c3)o2)cc1` is 87.7 µg/mL (≈ 283 µM). The figure for `CN1CCc2c(sc(NC(=O)c3ccc(C(C)(C)C)cc3)c2C(N)=O)C1` is 12.7 µg/mL (≈ 34.2 µM); for `O=C(Nc1nnc(C2=COCCO2)o1)c1cc(Cl)cc(Cl)c1` it is 53.7 µg/mL (≈ 157 µM). The figure for `O=C(Nc1nnc(-c2ccc(Cl)s2)o1)c1cccc([N+](=O)[O-])c1` is 6.09 µg/mL (≈ 17.4 µM); for `COc1cccc2sc(N(CCCn3ccnc3)C(=O)c3ccco3)nc12` it is 12.4 µg/mL (≈ 32.5 µM). Regarding `O=C(Nc1nnc(-c2cc(Cl)ccc2Cl)o1)c1cccs1`, the IC90 is 0.76 µg/mL (≈ 2.23 µM). For the compound `O=S(=O)(Nc1cc(Cl)c(O)c2ccccc12)c1ccc(F)cc1`, the IC90 is 6.28 µg/mL (≈ 17.9 µM).

Regarding `O=C(Nc1nnc(-c2ccc(F)cc2)o1)c1sc2ccccc2c1Cl`, the IC90 is 9.54 µg/mL (≈ 25.5 µM). The value for `CCOC(=O)N1CCc2c(sc(NC(=O)c3ccco3)c2-c2nc3ccccc3s2)C1` was 50.2 µg/mL (≈ 111 µM); that for `CCc1ccc(Cc2cnc(NC(=O)c3c(C)coc3C)s2)cc1` was 7.42 µg/mL (≈ 21.8 µM). The figure for `Cc1cc(C)c2nc(NNC(=O)c3ccc(F)cc3)sc2c1` is 3.98 µg/mL (≈ 12.6 µM); for `O=C(c1cccs1)N(CCCn1ccnc1)c1nc2c(F)cc(F)cc2s1` it is 2.38 µg/mL (≈ 5.88 µM).

On to `COc1ccc(-c2nnc3c4cc(OC)c(OC)cc4n(Cc4ccccc4OC)cc2-3)cc1`, for which the IC90 was 5.67 µg/mL (≈ 12.4 µM). The figure for `C=CCOC(=O)COc1ccc2cc(-c3ccc(Cl)cc3)c(=O)oc2c1` is 2.53 µg/mL (≈ 6.82 µM); for `O=C1c2cccc3cccc(c23)C(=O)N1CCc1ccc(S(=O)(=O)N2CCCCC2)cc1` it is 5.87 µg/mL (≈ 13.1 µM). Take `NC(=O)c1c(Nc2nc3ccc(F)cc3s2)sc2c1CCCC2`: the IC90 is 51.3 µg/mL (≈ 148 µM). The figure for `COc1ccc(Cn2cc3c(-c4ccccc4)nnc-3c3cc(OC)c(OC)cc32)cc1` is 6.64 µg/mL (≈ 15.6 µM); for `COc1ccc(CC(=O)N2CCN=C2SCc2ccc(C(F)(F)F)cc2)cc1` it is 23.9 µg/mL (≈ 58.4 µM); for `Cc1ccc(-c2nnc(NC(=O)c3ccccc3[N+](=O)[O-])o2)c(C)c1` it is 15.7 µg/mL (≈ 46.5 µM). The figure for `CCS(=O)(=O)c1cccc(C(=O)Nc2nnc(-c3ccc4c(c3)CCCC4)o2)c1` is 16.3 µg/mL (≈ 39.7 µM). The value for `Cc1ccc(C)c(-c2nnc(NC(=O)Cc3ccccc3)o2)c1` was 18.2 µg/mL (≈ 59.4 µM); that for `COc1cccc(OCCN2CCN(c3cc(C)nc4c(-c5ccccc5)cnn34)CC2)c1` was 12 µg/mL (≈ 27 µM); that for `Cc1ccc(C)c(-c2nnc(NC(=O)c3ccc(Cl)cc3)o2)c1` was 22.7 µg/mL (≈ 69.2 µM). On to `O=C(CCc1ccccc1)Nc1nnc(-c2cccs2)o1`, for which the IC90 is 42.8 µg/mL (≈ 143 µM). The figure for `COc1ccc2nc(Nc3nc4c(OC)cccc4s3)sc2c1` is 3.38 µg/mL (≈ 9.84 µM). The figure for `COc1cc(OC)cc(-c2nnc(NC(=O)c3ccc([N+](=O)[O-])o3)o2)c1` is 9.08 µg/mL (≈ 25.2 µM). The figure for `COC(=O)c1ccc(CSc2nnc(-c3ccncc3)o2)o1` is 5.77 µg/mL (≈ 18.2 µM); for `O=C(CCOc1ccccc1)Nc1nnc(-c2ccc3c(c2)OCCO3)o1` it is 95.9 µg/mL (≈ 261 µM); for `CCc1ccc2nc(Nc3nc4ccc(S(C)(=O)=O)cc4s3)sc2c1` it is 7.52 µg/mL (≈ 19.3 µM). Consider `CCOC(=O)c1ccc(NC(=O)CSc2ccc(F)cc2)cc1`, for which the 90% effect concentration (IC90) was 5.47 µg/mL (≈ 16.4 µM). The figure for `COc1ccccc1Cn1cc2c(-c3ccccc3)nnc-2c2cc(OC)c(OC)cc21` is 7.59 µg/mL (≈ 17.8 µM). With `O=C(c1ccco1)N(CCCn1ccnc1)c1nc2ccccc2s1`, the IC90 is 4.28 µg/mL (≈ 12.1 µM). The figure for `COc1ccc2nc(Nc3nc(-c4ccccn4)cs3)sc2c1` is less than 0.2 µg/mL; for `O=C1NC(=S)NC(=O)C1=Cc1nc(-c2ccccc2Cl)n2ccccc12` it is 10.8 µg/mL (≈ 28.2 µM); for `CCc1ccc(-c2nnc3c4cc5c(cc4n(Cc4ccc(OC)cc4)cc2-3)OCCO5)cc1` it is 5.37 µg/mL (≈ 11.9 µM). The value for `CS(=O)(=O)c1ccc2nc(Nc3nc4ccc(Cl)cc4s3)sc2c1` was 9.7 µg/mL (≈ 24.5 µM). The figure for `COc1ccc(-c2nnc3c4cc5c(cc4n(Cc4cccc(OC)c4)cc2-3)OCCO5)cc1` is 5.28 µg/mL (≈ 11.6 µM); for `O=C(Nc1nnc(-c2cc(Cl)ccc2Cl)o1)c1nc2ccccc2s1` it is 10.5 µg/mL (≈ 26.7 µM).

Turning to `CC(C)N1CCc2c(sc(NC(=O)c3nc4ccccc4s3)c2C(N)=O)C1`, the IC90 was 12.9 µg/mL (≈ 32.3 µM).

Take `NC(=O)C1CCN(C2=NC(=O)/C(=C\c3ccc(Cl)cc3Cl)S2)CC1`: the IC90 is less than 0.2 µg/mL. Regarding `O=C(Nc1nnc(-c2ccc(Br)cc2)o1)c1ccc(Cl)s1`, the IC90 was 1.87 µg/mL (≈ 4.86 µM). The value for `Cc1ccc(-c2nnc(NC(=O)c3ccc([N+](=O)[O-])s3)o2)c(C)c1` was 0.61 µg/mL (≈ 1.77 µM). The value for `CCc1ccc(-c2ccc(SCC(N)=O)nn2)cc1` was 4.66 µg/mL (≈ 17 µM); that for `O=C(COc1ccc(Cl)cc1)N1CCN(c2ccc(N3CCCCC3)nn2)CC1` was 14.3 µg/mL (≈ 34.3 µM); that for `CCOc1cccc2nc(NC(=O)c3ccc(Oc4ccccc4)cc3)sc12` was 13.7 µg/mL (≈ 35.1 µM).

On to `Cc1nc2c(ccc3nc(NC(=O)c4ccc(C(C)(C)C)cc4)sc32)s1`, for which the IC90 is 3.24 µg/mL (≈ 8.49 µM). The value for `O=C(/C=C/c1cccs1)Nc1nnc(-c2ccco2)o1` was 5.99 µg/mL (≈ 20.8 µM).

On to `N/C(=N\OC(=O)c1ccccc1F)c1ccccn1`, for which the IC90 is 18.7 µg/mL (≈ 72.2 µM).

For `O=C(Nc1nnc(-c2cc(Cl)ccc2Cl)o1)c1ccccc1Br`, the IC90 was 1.6 µg/mL (≈ 3.87 µM). The value for `O=C(Nc1nnc(-c2ccco2)o1)c1ccc2c(c1)OCCO2` was 11.6 µg/mL (≈ 37.1 µM); that for `O=C(/C=C/c1cccs1)Nc1nnc(-c2ccc3c(c2)OCCO3)o1` was 37 µg/mL (≈ 104 µM); that for `COc1ccc(-c2nnc(NC(=O)c3ccccc3C)o2)cc1` was 9.97 µg/mL (≈ 32.2 µM). With `O=C(Nc1nnc(-c2ccc(F)cc2)o1)c1cccc(Br)c1`, the IC90 is 93.6 µg/mL (≈ 259 µM). The figure for `CSc1nc2ccc3nc(NC(=O)c4cc5ccccc5oc4=O)sc3c2s1` is 26.1 µg/mL (≈ 61.3 µM). The value for `Cc1ccc(C(=O)Nc2nnc(-c3ccncc3)o2)cc1` was 13.4 µg/mL (≈ 47.7 µM).
